“Also recorded” adds a separate entry of the source.
Experiments:
Type in all cases: in vivo, C57Bl/6 (B6) mice
[1] = system: experimental MMP mouse model (anti-mLAMα3 IgG induced); assay: Conjunctival lesions by lesional histopathology (H&E) of palpebral conjunctiva in antibody transfer-induced experimental MMP; settings: for overall therapeutic effect in diseased mice: administered topically twice a day, days 12 and 28; for subepithelial inflammatory infiltrate, semi-quantification of H&E stained palpebral conjunctival biopsies / palpebral conjunctival split formation (conjunctiva score): vs vehicle; for palpebral conjunctival split formation (conjunctiva score): score 0-4
Excerpt: (§1) Adult C57Bl/6 (B6) mice (male and female) aged at least 6 weeks old were used. Animals were maintained on a 12-h light-dark cycle at the animal facility of the University of Lübeck. Mice were held under SPF conditions and fed acidified drinking water and standard chow ad libitum. Protocols were approved by the Animal Rights Commission of the Ministry of Agriculture and Environment, Schleswig-Holstein.
For production of anti-mLAMα3 IgG, New Zealand White rabbits were immunized subcutaneously with […] of an equimolar mixture of the 2 purified recombinant proteins (aa1656-1985 and aa2756-3330 of murine Laminin alpha3 chain, produced in E. coli as disclosed by Heppe, E. N., et al., J Invest Dermatol, 2017, 137, 1709-1718) suspended in complete Freund's adjuvant. The animals were boosted twice with the same protein preparation in incomplete Freund's adjuvant. Immune sera were obtained at regular intervals and characterized by IF microscopy on cryosections of murine skin. IgG from rabbits immunized with recombinant fragments of murine mLAMα3 and from non-immunized rabbits was purified by affinity chromatography using protein G sepharose affinity chromatography (Amersham Biosciences, Heidelberg, Germany). Reactivity of IgG fractions was analyzed by IF microscopy on murine skin (Sitaru et al., J Immunol 2006, 177: 3461-8). In addition, each batch of anti-mLAMα3 IgG was characterized in vivo regarding its capability to induce experimental MMP in C57Bl/6 (B6) mice (WP1.1). From this experiment, the amount of antibodies that leads to moderate experimental MMP was determined; i.e. the amount needed to induce disease development with moderate involvement of the conjunctiva (i.e. score of 1-3 in a maximum of 50% of the animals on day 12) in the model of antibody transfer-induced MMP. For this purpose, the intensity of the separation of the conjunctiva is determined histologically. The body surface area affected should be between 3-8% at the concentration used. The conjunctiva score was set histologically post-mortem and was in a range of 0-4, depending on the intensity of the separation of the conjunctiva. The amount needed was determined to be 5 mg/injection of anti-mLAMα3 IgG.
To test DF2156A at 0.5% and reparixin at 0.5% effects on the severity of conjunctival involvement in experimental MMP, the disease was induced by repetitive subcutaneous (s.c.) injections of anti-mLAMα3 IgG (5 mg/mouse) on alternating days (0, 2, ( . . . ) and 10) into adult B6 mice, which were treated throughout the entire experiment twice a day via eyedrops. Three eyedrops per eye were given twice daily. Mice treated with solvent via eyedrops or methylprednisolone (MP) via i.p. injections were used as treatment controls. Mice s.c. injected with IgG isolated from normal rabbit serum (NR IgG) served as negative control.
The primary endpoint of this experiment was the extent of conjunctival lesions as determined by lesional histopathology (H&E stain) on day 12 and 28 following an established scoring system (Heppe, E. N., et al., J Invest Dermatol, 2017, 137, 1709-1718). In detail, biopsies from the palpebral conjunctiva were taken on day 12 and day 28 and paraffine embedded. 4.5 μm thick sections from 3 different depths of the biopsies were cut in triplicate and H&E stained for further quantification. Among the H&E stained histologies those with a palpebral conjunctival-epithelium with more than 1000 μm were used for quantification. For this score the length of the split formation (split=epithelia separation from the underlying dermal structures) is measured. The split length is categorized to a score of 0-4 with no split=0, less than 100 μm=1, less than 200 μm=2, less than 300 μm=3, more or equal 300 μm=4. Splits that occurred at the end of the tissue were excluded, because they were most likely to be of artificial nature due to the cutting. The longest split out of 9 possible sections is decisive for the final score. […]

[2] = system: experimental MMP mouse model (anti-mLAMα3 IgG induced); assay: Macroscopic affected eye area in experimental MMP; settings: DF2156A topical eyedrops, MP i.p. once daily
Excerpt: as §1
For production of anti-mLAMα3 IgG, New Zealand White rabbits were immunized subcutaneously with […] of an equimolar mixture of the 2 purified recombinant proteins (aa1656-1985 and aa2756-3330 of murine Laminin alpha3 chain, produced in E. coli as disclosed by Heppe, E. N., et al., J Invest Dermatol, 2017, 137, 1709-1718) suspended in complete Freund's adjuvant. […] Reactivity of IgG fractions was analyzed by IF microscopy on murine skin (Sitaru et al., J Immunol 2006, 177: 3461-8). […] From this experiment, the amount of antibodies that leads to moderate experimental MMP was determined; i.e. the amount needed to induce disease development with moderate involvement of the conjunctiva (i.e. score of 1-3 in a maximum of 50% of the animals on day 12) in the model of antibody transfer-induced MMP. For this purpose, the intensity of the separation of the conjunctiva is determined histologically. […] The amount needed was determined to be 5 mg/injection of anti-mLAMα3 IgG. […]

[3] = system: experimental MMP mouse model (anti-mLAMα3 IgG induced); assay: Severity of oral lesions by endoscopy (oral score) in experimental MMP; settings: day 28; vs vehicle; DF2156A eyedrops, MP i.p.; maximum score 4
[4] = day 12, 0.5% eyedrops twice daily
[5] = day 28, 0.5% eyedrops twice daily
[6] = day 28, 0.5% eyedrops twice daily, listed as Reparixin

Row | Structure (SMILES) | overall therapeutic effect in diseased mice [1] | subepithelial inflammatory infiltrate, semi-quantification of H&E stained palpebral conjunctival biopsies [1, 4] | palpebral conjunctival split formation (conjunctiva score) ([1]; day 12, DF2156A 0.5% or reparixin 0.5% eyedrops twice daily) | subepithelial inflammatory infiltrate, semi-quantification of H&E stained palpebral conjunctival biopsies [1, 5] | palpebral conjunctival split formation (conjunctiva score) [1, 5] | extent of macroscopic affected eye area ([2]; day 12) | extent of affected eye area (AUC over 28 days) ([2]; day 28) | severity of oral lesions (oral score) [3] | subepithelial inflammatory infiltrate, semi-quantification of H&E stained palpebral conjunctival biopsies [1, 6] | palpebral conjunctival split formation (conjunctiva score) [1, 6]
1 | C[C@@H](C(=O)NS(C)(=O)=O)c1ccc(OS(=O)(=O)C(F)(F)F)cc1 [DF2156A, R(−)-2-[(4-trifluoromethanesulfonyloxy)phenyl]-N-methanesulfonyl propionamide] | overall benefit | reduced | significant reduction; also recorded: improvement | decreased; also recorded: improvement | significant reduction; also recorded: improvement | reduction | reduction | decreased | – | –
2 | CC(C)Cc1ccc([C@@H](C)C(=O)NS(C)(=O)=O)cc1 [reparixin, R-(−)-2-(4-isobutylphenyl)propionyl methansulfonamide] | overall benefit; also recorded: slower onset of the therapeutic effect | reduced | – | significantly decreased | significant reduction | – | – | – | reduced | reduced
